pEC50: −log10 of the molar value.
target: GLP-1 Receptor (Homo sapiens, UniProt P43220); assay: GLP-1R agonist cAMP stimulation assay (HEK293/GLP1R/CRE-LUC cells, cAMP dynamic 2 kit); assay type: cell-based; details: HEK293/CRE-Luc cell line stably expressing the GLP-1 Receptor; 30 min incubation at 37° C.; read-out: GLP1R cAMP Stimulation DR: EC50
Description: Activation of GLP-1 receptor is known to stimulate cyclic AMP (cAMP) production in cells which indicates primary coupling to the Gas subunit of the G protein heterotrimeric complex.
To optimize functional activity directed toward Gas coupling, a HEK293/CRE-Luc cell line developed by HDB stably expressing the GLP-1 Receptor was used. […] Seal the plate and incubate at 37° C. with 5% CO2 for 30 min.
After incubation the cAMP assay signal was generated using cAMP dynamic 2 Kit (Cisbio). 5 μL cAMP-d2 working solution was added to each well, followed with 5 μL Anti-cAMP antibody-cryptate working solution added to each well using ThermoFisher Multidrop Combi. Incubate at room temperature for 1 hour protected from light.
% Activity=[…]×(mean RLU of test sample−mean RLU of vehicle control)/(mean RLU of MAX control−mean RLU of vehicle control))

GLP-1 Receptor, sequence (P43220 24-463, species assumed): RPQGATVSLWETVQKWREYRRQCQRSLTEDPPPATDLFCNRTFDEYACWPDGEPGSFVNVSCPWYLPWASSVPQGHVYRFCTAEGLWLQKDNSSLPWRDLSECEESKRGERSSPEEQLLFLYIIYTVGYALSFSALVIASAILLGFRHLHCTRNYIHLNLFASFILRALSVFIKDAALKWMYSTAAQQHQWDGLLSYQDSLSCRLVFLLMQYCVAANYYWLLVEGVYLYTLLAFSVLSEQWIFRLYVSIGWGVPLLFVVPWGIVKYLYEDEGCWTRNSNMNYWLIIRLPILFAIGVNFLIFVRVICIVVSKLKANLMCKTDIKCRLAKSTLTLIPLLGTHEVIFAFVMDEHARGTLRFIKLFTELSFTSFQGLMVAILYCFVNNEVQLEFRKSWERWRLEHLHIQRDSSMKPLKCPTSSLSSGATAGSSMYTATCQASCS

Row | pEC50 | Structure (SMILES)
1 | 10.38 | O=C(O)c1ccc2nc(C[C@H]3CC[C@H](Oc4ccnc(Cc5ccc(Cl)cc5)n4)CC3)n(C[C@@H]3CCO3)c2n1 [Compound 177a, 3-{[(2S)-oxetan-2-yl]methyl}-2-{[trans-4-({2-[(4-chlorophenyl)methyl]pyrimidin-4-yl}oxy)cyclohexyl]methyl}-3H-imidazo[4,5-b]pyridine-5-carboxylic acid]
2 | 10.00 | N#CC1(Cn2c(C[C@H]3CC[C@H](Oc4ccnc(Cc5ccc(Cl)cc5)n4)CC3)nc3ccc(C(=O)O)nc32)CC1 [Compound 178a, 3-[(1-cyanocyclopropyl)methyl]-2-{[trans-4-({2-[(4-chlorophenyl)methyl]pyrimidin-4-yl}oxy)cyclohexyl]methyl}-3H-imidazo[4,5-b]pyridine-5-carboxylic acid]
3 | 8.55 | COCCn1c(C[C@H]2CC[C@H](Oc3ccnc(Cc4ccc(Cl)cc4)n3)CC2)nc2ccc(C(=O)O)nc21 [Compound 179a, 3-(2-methoxyethyl)-2-{[trans-4-({2-[(4-chlorophenyl)methyl]pyrimidin-4-yl}oxy)cyclohexyl]methyl}-3H-imidazo[4,5-b]pyridine-5-carboxylic acid]
4 | 8.64 | Cn1c(C[C@H]2CC[C@H](Oc3ccnc(Cc4ccc(Cl)cc4)n3)CC2)nc2ccc(C(=O)O)nc21 [Compound 180a, 3-methyl-2-{[trans-4-({2-[(4-chlorophenyl)methyl]pyrimidin-4-yl}oxy)cyclohexyl]methyl}-3H-imidazo[4,5-b]pyridine-5-carboxylic acid]
5 | 10.15 | N#Cc1ccc(Cc2nccc(O[C@H]3CC[C@H](Cc4nc5ccc(C(=O)O)nc5n4C[C@@H]4CCO4)CC3)n2)cc1 [Compound 182a, 3-{[(2S)-oxetan-2-yl]methyl}-2-{[trans-4-({2-[(4-cyanophenyl)methyl]pyrimidin-4-yl}oxy)cyclohexyl]methyl}-3H-imidazo[4,5-b]pyridine-5-carboxylic acid]

The remaining lines, values behind:

Row | Structure (SMILES) | pEC50
6 | O=C(O)c1ccc2nc(C[C@H]3CC[C@H](Oc4ccnc(Cc5ccc(Cl)cc5F)n4)CC3)n(C[C@@H]3CCO3)c2n1 [Compound 175b, 3-{[(2S)-oxetan-2-yl]methyl}-2-{[trans-4-({2-[(4-chloro-2-fluorophenyl)methyl]pyrimidin-4-yl}oxy)cyclohexyl]methyl}-3H-imidazo[4,5-b]pyridine-5-carboxylic acid] | 10.20
7 | O=C(O)c1ccc2nc(C[C@H]3CC[C@H](Oc4ccnc(Cc5ccc(Cl)cc5)n4)CC3)n(C[C@@H]3CCO3)c2c1 [Compound 176a, 1-{[(2S)-oxetan-2-yl]methyl)-2-{[trans-4-({2-[(4-chlorophenyl)methyl]pyrimidin-4-yl}oxy)cyclohexyl]methyl}-1H-1,3-benzodiazole-6-carboxylic acid] | 9.43
8 | O=C(O)c1ccc2nc(C[C@H]3CC[C@H](Oc4cccc(Cc5ccc(Cl)cc5)n4)CC3)n(C[C@@H]3CCO3)c2n1 [Compound 181a, 3-{[(2S)-oxetan-2-yl]methyl}-2-{[trans-4-({6-[(4-chlorophenyl)methyl]pyridin-2-yl}oxy)cyclohexyl]methyl}-3H-imidazo[4,5-b]pyridine-5-carboxylic acid] | 10.08
9 | O=C(O)c1ccc2nc(CN3CCC(Oc4nn(Cc5ccc(Cl)cc5F)cc4Cl)CC3)n(C[C@@H]3CCO3)c2n1 [Compound 183a, 2-{[4-({4-chloro-1-[(4-chloro-2-fluorophenyl)methyl]-1H-pyrazol-3-yl}oxy)piperidin-1-yl]methyl}-3-{[(2S)-oxetan-2-yl]methyl}-3H-imidazo[4,5-b]pyridine-5-carboxylic acid] | 9.07
10 | O=C(O)c1ccc2nc(CN3CCC(Oc4cnn(Cc5ccc(Cl)cc5F)c4)CC3)n(C[C@@H]3CCO3)c2n1 [Compound 184a, 2-{[4-({1-[(4-chloro-2-fluorophenyl)methyl]-1H-pyrazol-4-yl}oxy)piperidin-1-yl]methyl}-3-{[(2S)-oxetan-2-yl]methyl}-3H-imidazo[4,5-b]pyridine-5-carboxylic acid] | 7.05

same assay, conditions: HEK293/CRE-Luc cell line stably expressing the GLP-1 Receptor; 30 min incubation at 37° C.; read-out: GLP1R cAMP Stimulation DR: pEC50 (converted)

Row | Structure (SMILES) | EC50 [nM]
11 | O=C(O)c1ccc2nc(CN3CCC(Oc4cnn(Cc5ccc(Cl)cc5F)c4)CC3)n(C[C@@H]3CCO3)c2n1 [Compound 184a, 2-{[4-({1-[(4-chloro-2-fluorophenyl)methyl]-1H-pyrazol-4-yl}oxy)piperidin-1-yl]methyl}-3-{[(2S)-oxetan-2-yl]methyl}-3H-imidazo[4,5-b]pyridine-5-carboxylic acid] | 100
